Data on 59 molecules can be found in ChEMBL document CHEMBL1201862, “PubChem BioAssay data set” (2004).

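Exposure lasted 48 hours, with cells grown in 96-well plates and compounds tested at five concentrations. At the GI50, growth is halved.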 Activity calls are given as the source filed them. Cut-off read from the data, not from the text of the source: active = GI50 up to about 1.1 µM and inactive = higher.

Common to all, as to experiment: NCI tumour cell line growth inhibition, 48 h
Assay [1] concerns BT-549.
In assay [2] the test system is HOP-18.
The test system of assay [3] is DMS-114.
Assay [4] concerns DMS-273.
Assay [5] deals with SNB-78.
Assay [6] relates to M19-MEL.
Assay [7] concerns KM-20L2.
For assay [8], the system named is XF498.

Turning to `N#CC(NCCc1ccccc1)c1ccc(C(C#N)NCCc2ccccc2)cc1` (centres undefined), the GI50 in assay [1] is 20.5 µM (inactive).

On to `Cc1ccc(S(=O)(=O)Nc2cc(O)nc3c2CCC3)cc1`, for which the GI50 in assay [1] is > 100 µM (inactive).

Consider `Cc1nc2c(nc1C)C(=O)c1cc(O)ccc1C2=O`, for which the GI50 in assay [2] is > 100 µM (inactive); in assay [3], 37.2 µM (inactive); in assay [4] it was > 59 µM (inactive); in assay [5] it was > 100 µM (inactive); in assay [6], 8.13 µM (inactive); in assay [7], 57.4 µM (inactive).

As to `O[C@H]1[C@H]2c3cc4c(cc3CN3CCC(=C[C@@H]1O)[C@H]23)OCO4` [LYCORINE], the GI50 in assay [1] was 1.66 µM (inactive).

In the case of `CC(C)(C)c1cc(C2NC(=O)NC2=O)cc(C(C)(C)C)c1O` (centres undefined), the GI50 in assay [1] is > 100 µM (inactive).

`Cc1cccc(-c2nnc3s/c(=C\c4ccc(N(C)C)cc4)c(=O)n23)c1`: the GI50 in assay [2], in assay [4], in assay [5], in assay [8], in assay [6] and in assay [7] was > 100 µM (inactive) throughout.

For `N[C@H](C(=O)O)[C@@H](Cl)CC(=O)O`, the GI50 in assay [2], in assay [3], in assay [4], in assay [5], in assay [8] and in assay [6] was > 100 µM (inactive) each time. Further, the GI50 in assay [7] is > 100 µM (inactive).

As to `Cc1ccc2cccc(OC(=O)c3cc4c(cc3Cl)Sc3nccn3S4(=O)=O)c2n1`, the GI50 in assay [1] was 17.4 µM (inactive).

`CCn1ncc(Oc2c(Cl)cc(N)cc2Cl)c(Cl)c1=O`: in assay [1], the GI50 is 25.6 µM (inactive).

On to `COc1cccc2c1CCc1ccccc1CC2=O`, for which the GI50 in assay [2], in assay [3], in assay [4], in assay [8], in assay [6] and in assay [7] was > 100 µM (inactive) in each case.

As for `CSC1=C(c2ccc(Cl)cc2)SC(N2CCCCC2)N1c1ccc([N+](=O)[O-])cc1` (centres undefined), the GI50 in assay [1] was 27.3 µM (inactive).

`O=C1C=C(NCCOCCO)C(=O)c2c(O)ccc(O)c21`: the GI50 in assay [1] was > 100 µM (inactive).

In the case of `COc1cc(C2c3cc4c(cc3OC(N3CCOCC3)C2C)OCO4)ccc1O` (centres undefined), the GI50 in assay [1] was 10.3 µM (inactive).

On to `Fc1ccc(-c2sc(-c3cccs3)cc2Cc2cccs2)cc1`, for which the GI50 in assay [1] is > 100 µM (inactive).

Regarding `Oc1cc(CN2CCOCCOCCOCCOCC2)c(O)cc1CN1CCOCCOCCOCCOCC1`, the GI50 in assay [5] was > 57.1 µM (inactive); in assay [8], 22 µM (inactive); in assay [6] it was 14.1 µM (inactive); in assay [7] it was > 50.6 µM (inactive).

Consider `CCN(C(C)=O)c1cnc(/C=N/NC(N)=S)c2ccccc12`, for which the GI50 in assay [1] was 5 µM (inactive).

Turning to `C#CC1(OC(C)=O)CCC2C3CC=C4C=C(OC(C)=O)CCC4(C)C3CCC21C` (centres undefined), the GI50 in assay [1] was 31.8 µM (inactive).

Regarding `O=C(Nc1nnc(-c2ccccc2)o1)C(SC(=S)N1CCCCC1)c1ccccc1` (centres undefined), the GI50 in assay [1] was 14 µM (inactive).

On to `COc1ccc2c(c1)[n+]([O-])c1cc(C#N)ccc1[n+]2[O-]`, for which, in assay [1], the GI50 is 10.2 µM (inactive).

As to `CC1=NNC(=O)C1C1C(=O)NN=C(c2c[nH]c3ccccc23)C1Br` (centres undefined), in assay [1], the GI50 is > 100 µM (inactive).

Turning to `CCOC(=O)c1cccc(/N=N/c2nc[nH]c2/C=C/C(=O)OC)c1`, the GI50 in assay [1] was 42.6 µM (inactive).

Regarding `CSC1=C(C(=O)Nc2ccccc2)C(N)=NC1=O`, in assay [1], the GI50 was > 100 µM (inactive).

On to `CN(C)c1nc(N(C)C)n2nc(-c3ccccc3[N+](=O)[O-])nc2n1`, for which the GI50 in assay [2] is > 100 µM (inactive); in assay [3], > 100 µM (inactive); in assay [4] it was 33.5 µM (inactive); in assay [5] it was > 100 µM (inactive); in assay [8], > 100 µM (inactive); in assay [6], > 100 µM (inactive). Besides, in assay [7], the GI50 was > 100 µM (inactive).

Take `C[Si](C)(C)/C=C/CCC(C=O)(CCCl)c1ccccc1` (centres undefined): the GI50 is 27.4 µM (inactive) in assay [2]; 19.5 µM (inactive) in assay [3]; 19.4 µM (inactive) in assay [4]; 23.8 µM (inactive) in assay [5]; 18.7 µM (inactive) in assay [8]; 27.7 µM (inactive) in assay [6]. Moreover, the GI50 in assay [7] is 28.8 µM (inactive).

Take `Nc1cccc2nsnc12`: in assay [1], the GI50 was > 100 µM (inactive).

As to `CC(=O)c1ccc2c(c1)oc(=O)n2CCN(C)C`, the GI50 in assay [1] is > 100 µM (inactive).

Consider `O=C(N/N=C\c1c(O)ccc2ccccc12)c1ccncc1`, for which the GI50 in assay [1] is 0.927 µM (active).

As to `O=C(/C=C/c1ccc(O)c(O)c1)NC(CO)C(=O)O` (centres undefined), the GI50 in assay [1] was > 100 µM (inactive).

Regarding `COC(=O)/C=C(/OC)[C@H](C)[C@H](/C=C/c1csc(-c2csc(C(C)C)n2)n1)OC`, the GI50 in assay [1] was 4.8 µM (inactive).

As to `CSC1(C(=O)O)C2CCC3C2CCC31` (centres undefined), the GI50 in assay [1] is > 100 µM (inactive).

Regarding `C=CC(=O)N1C/C(=C\c2ccc(Cl)cc2)C(=O)/C(=C/c2ccc(Cl)cc2)C1`, the GI50 in assay [1] is 0.329 µM (active).

Regarding `N#Cc1ccc(OCc2ccc3nc(-c4ccccc4)c(Cl)nc3c2)cc1`, the GI50 in assay [1] was > 100 µM (inactive).

Take `Nc1nc(O)c2[nH]nnc2n1` [8-AZAGUANINE]: the GI50 in assay [2] was 0.339 µM (active); in assay [1] it was 0.473 µM (active); in assay [3] it was 6.5 µM (inactive); in assay [4], 0.634 µM (active); in assay [5] it was 1.02 µM (active); in assay [7] it was 9.2 µM (inactive).

`N#Cc1c(N)nc(-c2ccc(Cl)cc2)c2c1-c1ccccc1S(=O)(=O)CC2`: in assay [1], the GI50 is 27.5 µM (inactive).

As for `Cc1cn(C2CCC(CO)(CF)O2)c(=O)[nH]c1=O` (centres undefined), the GI50 in assay [1] is > 100 µM (inactive).

In the case of `O=C(Nc1nc(C23CC4CC(CC(C4)C2)C3)cs1)c1cc2c(ccc3ccccc32)oc1=O`, the GI50 in assay [1] is > 100 µM (inactive).

In the case of `CCc1cccc(C(C)C)c1NC(=O)C(=O)C(Cc1nc2ccccc2nc1O)C(=O)OC` (centres undefined), the GI50 in assay [2] was > 100 µM (inactive); in assay [3], 14.3 µM (inactive); in assay [4], 61.4 µM (inactive); in assay [8], > 100 µM (inactive); in assay [6] it was > 100 µM (inactive); in assay [7], > 100 µM (inactive).

Take `COC1=CC(=O)[C@]2(C)[C@H](C1=O)C(C)[C@H]2c1ccc(OC)cc1` (some centres undefined): the GI50 in assay [4], in assay [5], in assay [8] and in assay [6] was > 100 µM (inactive) each time.

On to `COc1cc2ccccc2oc1=O`, for which the GI50 in assay [1] was 19.8 µM (inactive).

As for `CCCCNC(=S)Nn1c(-c2ccccc2)nc2ccccc2c1=O`, the GI50 in assay [2] is > 100 µM (inactive); in assay [3], 87.3 µM (inactive); in assay [4], > 100 µM (inactive); in assay [6], 92.5 µM (inactive).

For `CCCC(O)c1ccc2[nH]c3c(C)cc([N+](=O)[O-])c(C)c3c2c1` (centres undefined), the GI50 was > 100 µM (inactive) in assay [2]; > 100 µM (inactive) in assay [3]; 21.3 µM (inactive) in assay [4]; > 100 µM (inactive) in assay [5]; > 100 µM (inactive) in assay [8]; > 100 µM (inactive) in assay [6].

As for `CCC(=O)N(O)C(C)(C)C`, the GI50 in assay [3], in assay [5], in assay [6] and in assay [7] was > 100 µM (inactive) each time.

`CCN(CC)CCCC(C)Nc1ccnc2cc3ccccc3cc12` (centres undefined): the GI50 in assay [1] is 8.59 µM (inactive).

In the case of `CCOC(=O)Oc1ccc2c(c1)c(=O)c1c(NCCCN(CC)CC)ccc3nnn2c31`, in assay [1], the GI50 was 17.5 µM (inactive).

`O=C(O)C(SC1=NC(=O)C2(NN1)c1ccccc1-c1ccccc12)SC1=NC(=O)C2(NN1)c1ccccc1-c1ccccc12`: in assay [1], the GI50 was > 10 µM (inactive).

On to `O=C(Nc1ccc(F)cc1)C(=O)C(C1OC(=O)c2ccccc21)[N+](=O)[O-]` (centres undefined), for which the GI50 in assay [3], in assay [5], in assay [8], in assay [6] and in assay [7] was > 100 µM (inactive) in each case.

For `c1ccc(CSCCc2ccncc2)cc1`, the GI50 in assay [1] is > 100 µM (inactive).

Take `CC(OC(C)(C)C)[C@H](NC(=O)OCc1ccccc1)C(=O)NC(OCc1ccccc1)[C@H]1COC(C)(C)O1` (some centres undefined): the GI50 in assay [1] is > 10 µM (inactive).

Take `C=C(Cl)C(C)(Cl)CCC(Cl)C(C)(C)Cl` (centres undefined): in assay [1], the GI50 was > 100 µM (inactive).

Turning to `CCOC(=O)c1csc(C(CSCc2ccc(OC)cc2)N2C(=O)c3ccccc3C2=O)n1` (centres undefined), the GI50 in assay [1] was > 100 µM (inactive).

With `COc1cccc(/C=C\c2ccc(O)cc2)c1`, in assay [1], the GI50 is 17.5 µM (inactive).

Consider `CC(=O)c1cccc(NC(=O)C(=O)C(c2cnc3ccc([N+](=O)[O-])cc3n2)[N+](=O)[O-])c1` (centres undefined), for which the GI50 in assay [1] is 53 µM (inactive).

Regarding `O=C(Oc1ccc2c(-c3ccccc3)c(C(=O)Nc3ccc(Cl)cc3)c(=O)oc2c1)c1ccccc1`, the GI50 is > 100 µM (inactive) in assay [2]; 65.3 µM (inactive) in assay [3]; > 100 µM (inactive) in assay [4]; 58.1 µM (inactive) in assay [8]; > 100 µM (inactive) in assay [6]; > 100 µM (inactive) in assay [7].

Take `COc1ccc(/C=C/C(=O)c2cc(C(C)(C)C)c(O)c(C(C)(C)C)c2)cc1OC`: in assay [1], the GI50 is 5.24 µM (inactive).

With `O=C(Nc1nnc(-c2c(Cl)c(Cl)c(Cl)c(Cl)c2-c2nc3cc(C(=O)c4ccccc4)ccc3[nH]2)o1)c1ccc(Cl)cc1`, the GI50 in assay [1] was 41.9 µM (inactive).

For `CCCCCCCCCCCCO[PH](=O)OCCCCCCCCCCCC`, the GI50 in assay [1] was > 100 µM (inactive).

With `C=CCn1c(=O)c2ccccc2[n+]2c(C)c(C(=O)OCC)sc12`, the GI50 in assay [1] was > 100 µM (inactive).

On to `COC(=O)/C(=N\N)C(C(=O)C(=O)Nc1cc(Cl)ccc1Cl)c1nc2ccc([N+](=O)[O-])cc2nc1O` (centres undefined), for which the GI50 in assay [1] is > 100 µM (inactive).

For the molecule `O=C1C(Cl)C(c2cccc(O)c2)N1n1cnc2ccccc2c1=O` (centres undefined), the GI50 is 39.9 µM (inactive) in assay [2]; > 100 µM (inactive) in assay [3]; > 100 µM (inactive) in assay [4]; > 100 µM (inactive) in assay [5]; > 100 µM (inactive) in assay [8]; > 100 µM (inactive) in assay [6]. In addition, in assay [7], the GI50 was > 100 µM (inactive).
